Experimental data from ChEMBL document CHEMBL5442219.

Key:
Conditions in all cases: Compound concentration 10 µM
[1] = target: T1, Alpha-2C adrenergic receptor (Homo sapiens) (UniProt P18825)
T1 sequence (whole entry): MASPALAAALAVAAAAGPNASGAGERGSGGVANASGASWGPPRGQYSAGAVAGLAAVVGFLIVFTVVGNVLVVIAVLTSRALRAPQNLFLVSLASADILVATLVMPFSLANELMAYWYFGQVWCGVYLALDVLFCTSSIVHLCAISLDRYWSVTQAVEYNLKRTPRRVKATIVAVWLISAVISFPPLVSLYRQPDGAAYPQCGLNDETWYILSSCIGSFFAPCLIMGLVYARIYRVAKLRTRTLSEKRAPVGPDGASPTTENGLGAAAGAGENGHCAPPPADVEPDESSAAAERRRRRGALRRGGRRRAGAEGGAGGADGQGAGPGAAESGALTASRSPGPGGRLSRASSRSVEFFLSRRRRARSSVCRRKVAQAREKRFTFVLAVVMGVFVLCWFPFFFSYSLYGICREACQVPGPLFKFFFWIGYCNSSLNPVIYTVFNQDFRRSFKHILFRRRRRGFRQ

[2] = target: Histamine H1 receptor (Homo sapiens) (UniProt P35367)
[3] = target: D(3) dopamine receptor (Homo sapiens) (UniProt P35462)
[4] = target: 5-hydroxytryptamine receptor 7 (Homo sapiens) (UniProt P34969)
[5] = target: 5-hydroxytryptamine receptor 1B (Homo sapiens) (UniProt P28222)
[6] = target: 5-hydroxytryptamine receptor 5A (Homo sapiens) (UniProt P47898)
[7] = target: 5-hydroxytryptamine receptor 2A (Homo sapiens) (UniProt P28223)
[8] = target: Translocator protein (Homo sapiens) (UniProt P30536)
[9] = target: 5-hydroxytryptamine receptor 1E (Homo sapiens) (UniProt P28566)
[10] = target: Sodium-dependent noradrenaline transporter (Homo sapiens) (UniProt P23975)
[11] = target: Kappa-type opioid receptor (Homo sapiens) (UniProt P41145)
[12] = target: Sodium-dependent dopamine transporter (Homo sapiens) (UniProt Q01959)
[13] = target: Beta-2 adrenergic receptor (Homo sapiens) (UniProt P07550)
[14] = target: Histamine H4 receptor (Homo sapiens) (UniProt Q9H3N8)
[15] = target: T2, 5-hydroxytryptamine receptor 3A (Homo sapiens) (UniProt P46098)
T2 sequence (whole entry): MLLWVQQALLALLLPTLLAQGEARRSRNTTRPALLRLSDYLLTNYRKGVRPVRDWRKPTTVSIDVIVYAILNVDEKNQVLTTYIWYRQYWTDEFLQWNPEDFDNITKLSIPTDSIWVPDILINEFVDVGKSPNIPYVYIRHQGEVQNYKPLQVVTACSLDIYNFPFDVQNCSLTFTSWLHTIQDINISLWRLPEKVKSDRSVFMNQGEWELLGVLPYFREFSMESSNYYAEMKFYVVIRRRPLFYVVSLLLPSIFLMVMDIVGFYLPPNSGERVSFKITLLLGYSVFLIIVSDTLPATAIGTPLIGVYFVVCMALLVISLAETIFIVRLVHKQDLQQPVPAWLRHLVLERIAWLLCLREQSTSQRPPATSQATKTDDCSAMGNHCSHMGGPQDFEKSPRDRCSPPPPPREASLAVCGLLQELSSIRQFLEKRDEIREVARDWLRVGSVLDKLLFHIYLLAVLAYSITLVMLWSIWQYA

[16] = target: T3, Alpha-2A adrenergic receptor (Homo sapiens) (UniProt P08913)
T3 sequence (whole entry): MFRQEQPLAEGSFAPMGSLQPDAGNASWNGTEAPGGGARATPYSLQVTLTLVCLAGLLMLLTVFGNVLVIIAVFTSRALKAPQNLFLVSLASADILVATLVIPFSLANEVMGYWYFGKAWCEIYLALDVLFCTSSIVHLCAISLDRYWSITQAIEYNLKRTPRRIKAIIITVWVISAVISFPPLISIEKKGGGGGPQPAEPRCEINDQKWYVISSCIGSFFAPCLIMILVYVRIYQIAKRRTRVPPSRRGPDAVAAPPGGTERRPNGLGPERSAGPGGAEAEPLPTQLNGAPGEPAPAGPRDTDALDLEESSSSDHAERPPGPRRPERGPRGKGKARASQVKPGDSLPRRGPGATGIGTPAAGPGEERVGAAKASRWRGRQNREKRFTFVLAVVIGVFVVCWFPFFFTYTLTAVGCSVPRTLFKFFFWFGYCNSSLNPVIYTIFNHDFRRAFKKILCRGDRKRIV

[17] = target: T4, 5-hydroxytryptamine receptor 2C (Homo sapiens) (UniProt P28335)
T4 sequence (whole entry): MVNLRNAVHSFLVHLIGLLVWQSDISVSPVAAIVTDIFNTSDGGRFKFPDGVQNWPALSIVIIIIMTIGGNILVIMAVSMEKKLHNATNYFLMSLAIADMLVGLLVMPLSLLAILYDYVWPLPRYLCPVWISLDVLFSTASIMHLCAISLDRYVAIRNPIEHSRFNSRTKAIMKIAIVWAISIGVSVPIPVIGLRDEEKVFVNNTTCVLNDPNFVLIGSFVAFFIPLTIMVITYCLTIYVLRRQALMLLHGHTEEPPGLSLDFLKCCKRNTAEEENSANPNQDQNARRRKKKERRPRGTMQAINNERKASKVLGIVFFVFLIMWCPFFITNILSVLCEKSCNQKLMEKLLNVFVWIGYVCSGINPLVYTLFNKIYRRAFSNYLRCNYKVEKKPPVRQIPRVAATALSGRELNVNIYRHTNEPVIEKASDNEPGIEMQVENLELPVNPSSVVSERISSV

[18] = target: 5-hydroxytryptamine receptor 1D (Homo sapiens) (UniProt P28221)
[19] = target: Histamine H2 receptor (Homo sapiens) (UniProt P25021)
Histamine H2 receptor (Homo sapiens), sequence (P25021 whole entry): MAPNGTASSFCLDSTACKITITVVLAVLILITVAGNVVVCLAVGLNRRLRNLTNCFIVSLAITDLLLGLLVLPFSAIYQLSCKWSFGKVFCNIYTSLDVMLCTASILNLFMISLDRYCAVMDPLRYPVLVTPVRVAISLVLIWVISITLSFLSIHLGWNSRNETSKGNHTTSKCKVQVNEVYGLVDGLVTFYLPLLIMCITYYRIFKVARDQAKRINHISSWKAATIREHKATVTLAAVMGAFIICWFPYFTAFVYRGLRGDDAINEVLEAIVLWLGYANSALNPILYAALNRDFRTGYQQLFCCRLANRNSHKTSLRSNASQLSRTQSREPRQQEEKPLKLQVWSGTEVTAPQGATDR

5-hydroxytryptamine receptor 5A (Homo sapiens), sequence (P47898 whole entry): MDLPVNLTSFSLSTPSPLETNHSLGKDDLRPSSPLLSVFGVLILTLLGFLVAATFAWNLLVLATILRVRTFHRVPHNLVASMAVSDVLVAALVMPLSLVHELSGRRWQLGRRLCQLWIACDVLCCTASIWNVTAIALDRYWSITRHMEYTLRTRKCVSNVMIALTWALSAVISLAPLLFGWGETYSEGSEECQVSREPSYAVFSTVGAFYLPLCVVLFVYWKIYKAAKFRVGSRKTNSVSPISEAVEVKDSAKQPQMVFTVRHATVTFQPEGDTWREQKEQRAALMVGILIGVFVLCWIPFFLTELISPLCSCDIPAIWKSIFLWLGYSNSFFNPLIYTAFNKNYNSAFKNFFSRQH
Histamine H1 receptor (Homo sapiens), sequence (P35367 whole entry): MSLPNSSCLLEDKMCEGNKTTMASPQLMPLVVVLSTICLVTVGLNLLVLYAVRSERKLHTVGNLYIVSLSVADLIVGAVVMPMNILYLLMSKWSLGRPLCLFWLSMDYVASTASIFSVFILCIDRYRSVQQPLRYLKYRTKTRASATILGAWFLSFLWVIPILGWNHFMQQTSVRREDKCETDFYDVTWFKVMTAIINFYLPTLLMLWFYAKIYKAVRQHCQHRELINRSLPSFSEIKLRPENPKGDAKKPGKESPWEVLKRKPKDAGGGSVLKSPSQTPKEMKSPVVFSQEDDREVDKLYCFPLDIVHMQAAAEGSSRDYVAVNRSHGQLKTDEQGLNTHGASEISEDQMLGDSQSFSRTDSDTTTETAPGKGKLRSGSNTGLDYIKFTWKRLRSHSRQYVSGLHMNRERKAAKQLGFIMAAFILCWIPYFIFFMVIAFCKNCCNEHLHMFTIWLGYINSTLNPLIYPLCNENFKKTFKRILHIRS
Sodium-dependent noradrenaline transporter (Homo sapiens), sequence (P23975 whole entry): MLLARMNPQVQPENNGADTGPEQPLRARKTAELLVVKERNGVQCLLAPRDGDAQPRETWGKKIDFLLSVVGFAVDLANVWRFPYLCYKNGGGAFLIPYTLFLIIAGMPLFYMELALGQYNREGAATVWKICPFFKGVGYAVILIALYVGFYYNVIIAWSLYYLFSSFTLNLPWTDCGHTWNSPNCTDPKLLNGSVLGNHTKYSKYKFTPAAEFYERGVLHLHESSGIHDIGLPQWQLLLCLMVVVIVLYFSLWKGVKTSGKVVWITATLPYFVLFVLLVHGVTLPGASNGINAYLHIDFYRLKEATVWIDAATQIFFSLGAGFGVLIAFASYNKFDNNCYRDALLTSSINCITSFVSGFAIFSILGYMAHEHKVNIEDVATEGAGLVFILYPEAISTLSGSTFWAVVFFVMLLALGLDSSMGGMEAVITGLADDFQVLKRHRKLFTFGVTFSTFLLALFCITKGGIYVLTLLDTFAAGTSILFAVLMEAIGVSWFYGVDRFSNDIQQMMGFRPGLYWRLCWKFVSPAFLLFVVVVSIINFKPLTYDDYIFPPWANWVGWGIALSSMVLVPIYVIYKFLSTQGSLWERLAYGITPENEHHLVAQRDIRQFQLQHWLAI
Sodium-dependent dopamine transporter (Homo sapiens), sequence (Q01959 whole entry): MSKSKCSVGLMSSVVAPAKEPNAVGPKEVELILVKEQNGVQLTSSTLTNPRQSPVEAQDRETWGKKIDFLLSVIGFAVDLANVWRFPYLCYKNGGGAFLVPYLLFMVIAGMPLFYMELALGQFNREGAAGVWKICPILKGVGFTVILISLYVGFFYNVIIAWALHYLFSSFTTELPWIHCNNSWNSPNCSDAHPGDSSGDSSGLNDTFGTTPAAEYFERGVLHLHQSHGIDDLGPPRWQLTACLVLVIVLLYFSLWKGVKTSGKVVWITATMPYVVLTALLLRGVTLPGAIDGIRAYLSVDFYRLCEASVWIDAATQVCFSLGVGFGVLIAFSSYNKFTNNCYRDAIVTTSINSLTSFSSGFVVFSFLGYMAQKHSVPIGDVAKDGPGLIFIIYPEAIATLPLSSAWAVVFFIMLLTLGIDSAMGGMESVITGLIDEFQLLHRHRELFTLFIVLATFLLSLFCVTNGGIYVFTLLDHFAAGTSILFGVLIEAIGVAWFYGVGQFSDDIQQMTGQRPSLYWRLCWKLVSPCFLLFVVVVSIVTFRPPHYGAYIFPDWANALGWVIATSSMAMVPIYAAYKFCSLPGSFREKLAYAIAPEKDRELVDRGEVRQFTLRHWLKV
Translocator protein (Homo sapiens), sequence (P30536 whole entry): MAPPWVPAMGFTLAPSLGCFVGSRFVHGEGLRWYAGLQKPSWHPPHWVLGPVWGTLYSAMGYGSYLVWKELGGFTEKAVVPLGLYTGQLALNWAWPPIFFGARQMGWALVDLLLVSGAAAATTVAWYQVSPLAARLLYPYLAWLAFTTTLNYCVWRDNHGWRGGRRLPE
D(3) dopamine receptor (Homo sapiens), sequence (P35462 whole entry): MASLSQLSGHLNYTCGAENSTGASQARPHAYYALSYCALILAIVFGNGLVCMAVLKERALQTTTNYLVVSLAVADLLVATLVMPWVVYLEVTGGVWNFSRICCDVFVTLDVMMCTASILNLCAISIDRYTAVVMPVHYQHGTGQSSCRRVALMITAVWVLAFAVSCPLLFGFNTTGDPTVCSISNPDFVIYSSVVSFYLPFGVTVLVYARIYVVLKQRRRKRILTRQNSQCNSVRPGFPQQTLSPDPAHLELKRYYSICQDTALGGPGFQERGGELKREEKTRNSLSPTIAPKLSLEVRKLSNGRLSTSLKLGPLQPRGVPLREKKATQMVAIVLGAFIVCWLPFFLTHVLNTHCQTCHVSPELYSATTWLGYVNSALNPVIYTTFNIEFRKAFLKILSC
5-hydroxytryptamine receptor 1B (Homo sapiens), sequence (P28222 whole entry): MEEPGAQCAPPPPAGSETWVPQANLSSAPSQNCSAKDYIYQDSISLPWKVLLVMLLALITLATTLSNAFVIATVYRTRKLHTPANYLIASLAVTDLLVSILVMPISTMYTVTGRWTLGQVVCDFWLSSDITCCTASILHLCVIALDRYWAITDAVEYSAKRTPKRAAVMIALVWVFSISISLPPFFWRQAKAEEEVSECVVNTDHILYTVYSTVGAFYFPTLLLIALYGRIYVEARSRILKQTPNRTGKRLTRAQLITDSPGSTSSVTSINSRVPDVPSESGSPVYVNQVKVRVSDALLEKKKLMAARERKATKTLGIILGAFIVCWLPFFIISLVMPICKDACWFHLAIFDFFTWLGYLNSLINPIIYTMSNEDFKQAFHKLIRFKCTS
5-hydroxytryptamine receptor 1D (Homo sapiens), sequence (P28221 whole entry): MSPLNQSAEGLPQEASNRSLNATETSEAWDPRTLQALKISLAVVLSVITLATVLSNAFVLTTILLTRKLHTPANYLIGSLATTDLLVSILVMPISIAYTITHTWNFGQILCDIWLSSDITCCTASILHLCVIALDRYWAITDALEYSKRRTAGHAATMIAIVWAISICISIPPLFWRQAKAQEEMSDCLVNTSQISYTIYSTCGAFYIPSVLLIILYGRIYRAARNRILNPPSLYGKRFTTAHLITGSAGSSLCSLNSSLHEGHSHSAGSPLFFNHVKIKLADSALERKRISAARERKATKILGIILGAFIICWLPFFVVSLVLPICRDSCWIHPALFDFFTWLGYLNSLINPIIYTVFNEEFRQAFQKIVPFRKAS
Histamine H4 receptor (Homo sapiens), sequence (Q9H3N8 whole entry): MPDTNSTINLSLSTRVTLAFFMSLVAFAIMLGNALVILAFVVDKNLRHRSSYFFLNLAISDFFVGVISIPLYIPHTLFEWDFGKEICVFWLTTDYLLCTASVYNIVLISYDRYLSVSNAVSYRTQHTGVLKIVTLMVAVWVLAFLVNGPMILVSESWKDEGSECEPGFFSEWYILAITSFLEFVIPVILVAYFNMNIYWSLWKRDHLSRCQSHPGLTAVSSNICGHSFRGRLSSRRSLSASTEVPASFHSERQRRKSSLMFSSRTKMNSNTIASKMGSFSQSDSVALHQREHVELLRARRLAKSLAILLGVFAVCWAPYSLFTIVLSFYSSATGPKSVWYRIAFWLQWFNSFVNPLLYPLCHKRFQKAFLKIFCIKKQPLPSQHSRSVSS
5-hydroxytryptamine receptor 1E (Homo sapiens), sequence (P28566 whole entry): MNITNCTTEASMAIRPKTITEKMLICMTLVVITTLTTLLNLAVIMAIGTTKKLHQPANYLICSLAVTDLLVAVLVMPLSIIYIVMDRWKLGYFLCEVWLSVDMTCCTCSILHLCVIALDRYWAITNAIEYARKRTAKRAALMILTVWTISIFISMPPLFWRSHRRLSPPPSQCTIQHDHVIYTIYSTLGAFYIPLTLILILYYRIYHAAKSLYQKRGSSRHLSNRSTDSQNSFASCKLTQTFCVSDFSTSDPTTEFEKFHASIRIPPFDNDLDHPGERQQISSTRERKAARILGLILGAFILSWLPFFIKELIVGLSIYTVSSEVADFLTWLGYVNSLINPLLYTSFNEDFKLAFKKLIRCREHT
Beta-2 adrenergic receptor (Homo sapiens), sequence (P07550 whole entry, looked up): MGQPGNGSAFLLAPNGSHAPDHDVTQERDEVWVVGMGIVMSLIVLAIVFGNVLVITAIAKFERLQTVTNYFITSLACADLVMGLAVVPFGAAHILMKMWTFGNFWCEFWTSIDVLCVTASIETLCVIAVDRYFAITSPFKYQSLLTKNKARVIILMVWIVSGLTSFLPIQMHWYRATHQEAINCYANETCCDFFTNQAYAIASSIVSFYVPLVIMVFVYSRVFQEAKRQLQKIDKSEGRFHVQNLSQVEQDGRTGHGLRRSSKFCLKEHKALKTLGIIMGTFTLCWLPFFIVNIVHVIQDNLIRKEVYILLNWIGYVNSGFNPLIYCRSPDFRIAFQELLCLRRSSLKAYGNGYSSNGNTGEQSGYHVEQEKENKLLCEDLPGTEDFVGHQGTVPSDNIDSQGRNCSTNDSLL

SMILES	inhibition [1] [%]	inhibition [2] [%]	inhibition [3] [%]	inhibition [4] [%]	inhibition [5] [%]	inhibition [6] [%]	inhibition [7] [%]	inhibition [8] [%]	inhibition [9] [%]	inhibition [10] [%]	inhibition [11] [%]	inhibition [12] [%]	inhibition [13] [%]	inhibition [14] [%]	inhibition [15] [%]	inhibition [16] [%]	inhibition [17] [%]	inhibition [18] [%]	inhibition [19] [%]
O=c1ccc2ccc(OCCCCN3CCN(c4cccc5sccc45)CC3)cc2[nH]1	104	100	100	101	99	93.1	97.1	-2.98	92.3	96.6	13.9	88.2	78.8	8	81.9	104	103	104	–
O=C(O)c1cc(-c2ccc(C3CCNCC3)cc2)c2ccc(-c3ccc(C(F)(F)F)cc3)cc2c1	27.2	42.8	28.9	51.5	73.7	69	28.4	21.7	2.57	88	19.2	82.5	-2.41	-8.87	21.6	42.2	-3.35	73.1	–
CCc1nn(CCCN2CCN(c3cccc(Cl)c3)CC2)c(=O)n1CCOc1ccccc1	95.3	94.5	86.1	97	88	73.3	82	64.2	-4.17	85.1	49.2	78.7	-0.82	5.27	3.68	91.1	102	100	–
N#Cc1c(N)nc(SCc2csc(-c3ccc(Cl)cc3)n2)c(C#N)c1-c1ccc(OCCO)cc1	3.52	14.2	12.5	3.33	13	-4.31	18.4	57.6	-9.34	33.5	-8.5	64.1	17	-8.37	1.79	26.7	39.9	5.65	–
CN1CCN(c2ccc(Nc3c4ccccc4nc4ccccc34)cc2)CC1	105	54.4	-2.42	84.4	30.3	20.3	5.02	6	46.2	84.7	38.7	62.7	81.7	15.5	32	70.5	16.7	54.3	–
COc1ccc(NC(=O)c2ccc(-c3ccc(-c4noc(C)n4)cc3C)cc2)cc1OCCN(C)C	79	22.1	33.1	78.8	101	65.6	95.4	31.1	52.5	94	44	86.1	13.1	49	5.18	99.4	98.3	101	–
O=C(O)COc1cccc(CN(Cc2ccc(-n3cccn3)cc2)S(=O)(=O)c2cccnc2)c1	-2.57	1.83	5.78	–	12.1	–	15.6	11.1	14.9	–	-1.11	–	-8.36	-9.76	–	-8.07	29.9	–	3.71
Cc1cc(C)c(N)c(C#Cc2cccc(F)c2)n1	13.5	9.77	9.35	7.78	16.6	-5.73	5.87	39.6	20.1	65.2	18.4	9.26	19.8	8.38	-2.76	4.3	2.41	18.3	–
COc1ccc(CNC(=O)c2cc(-c3cncc(Cl)c3)cnc2-c2ccccn2)nc1OC	7.09	17.4	7.89	–	-4.47	–	88.7	17.5	12.9	39	23.7	36.3	-9.92	5.15	–	–	–	-5.62	-5.76
Cc1cc(NC(=O)NCCN2CCC(O)(Cc3ccccc3)CC2)c2ccccc2n1	37.3	5.97	27.4	32	11.5	5.79	52.7	44.3	5.03	69.5	31.9	43.9	28.1	3.45	4.17	82.4	92.3	91.7	–
C[N+]1(C)[C@@H]2C[C@@H](OC(=O)C(O)(c3cccs3)c3cccs3)C[C@H]1[C@@H]1O[C@@H]12	-0.27	92.1	24	-5.44	14.9	2.25	-4.76	66.3	11.2	-2.62	-0.32	-2.43	16.1	-8.1	14.3	6.5	-6.52	32.9	–
